Calls of active or inactive are those of the source. Cut-off read from the data, not from the text of the source, for most assays here: actives have a measured IC50 and inactives only a lower limit.
How the values were obtained:
Format in all cases: functional
[1] = target: T1, Caspase-3 (Homo sapiens, UniProt P42574);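 note: Dose-response selectivity test against caspase-3 for candidate inhibitors of sentrin-specific proteases (SENPs)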
T1 sequence (P42574 whole entry): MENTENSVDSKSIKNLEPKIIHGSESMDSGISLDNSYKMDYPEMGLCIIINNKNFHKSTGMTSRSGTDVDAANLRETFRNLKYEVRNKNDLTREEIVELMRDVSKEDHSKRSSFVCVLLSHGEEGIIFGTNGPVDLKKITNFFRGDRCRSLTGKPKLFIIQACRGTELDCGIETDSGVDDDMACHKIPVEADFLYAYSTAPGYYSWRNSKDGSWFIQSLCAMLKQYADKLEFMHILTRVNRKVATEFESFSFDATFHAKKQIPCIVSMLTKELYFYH

[2] = target: T2, Sentrin-specific protease 7 (Homo sapiens, UniProt Q9BQF6);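 note: Luminescence-based dose-response confirmation of ultra-high-throughput screening hits, measuring inhibition of SENP7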
T2 sequence (Q9BQF6 whole entry): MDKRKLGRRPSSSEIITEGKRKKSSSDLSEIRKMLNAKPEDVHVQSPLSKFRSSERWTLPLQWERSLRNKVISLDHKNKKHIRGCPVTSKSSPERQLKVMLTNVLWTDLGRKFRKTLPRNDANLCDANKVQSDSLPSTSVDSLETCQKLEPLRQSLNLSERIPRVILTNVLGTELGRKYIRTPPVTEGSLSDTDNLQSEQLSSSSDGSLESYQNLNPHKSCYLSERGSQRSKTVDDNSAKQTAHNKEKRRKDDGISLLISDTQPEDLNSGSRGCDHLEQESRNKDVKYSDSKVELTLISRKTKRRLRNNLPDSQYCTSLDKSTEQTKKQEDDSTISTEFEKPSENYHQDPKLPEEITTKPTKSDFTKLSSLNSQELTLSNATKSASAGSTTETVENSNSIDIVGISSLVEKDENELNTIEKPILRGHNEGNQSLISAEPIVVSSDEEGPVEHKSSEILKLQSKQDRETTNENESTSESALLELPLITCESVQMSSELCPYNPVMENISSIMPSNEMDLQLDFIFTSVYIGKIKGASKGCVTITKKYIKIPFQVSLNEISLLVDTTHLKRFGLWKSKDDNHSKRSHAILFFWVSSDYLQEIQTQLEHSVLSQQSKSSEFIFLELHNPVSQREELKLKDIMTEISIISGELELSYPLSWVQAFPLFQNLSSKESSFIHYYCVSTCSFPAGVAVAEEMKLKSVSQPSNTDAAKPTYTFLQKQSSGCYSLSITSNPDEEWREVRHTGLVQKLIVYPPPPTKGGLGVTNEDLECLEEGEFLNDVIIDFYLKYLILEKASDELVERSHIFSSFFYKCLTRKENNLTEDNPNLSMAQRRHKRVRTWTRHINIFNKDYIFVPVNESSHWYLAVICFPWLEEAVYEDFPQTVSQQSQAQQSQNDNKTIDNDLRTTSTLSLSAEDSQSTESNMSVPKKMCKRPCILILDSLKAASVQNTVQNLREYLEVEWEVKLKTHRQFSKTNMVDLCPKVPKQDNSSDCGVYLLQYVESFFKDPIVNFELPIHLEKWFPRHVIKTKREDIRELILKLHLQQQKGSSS

[3] = target: T3, Sentrin-specific protease 6 (Homo sapiens, UniProt Q9GZR1);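 note: Luminescence-based dose-response confirmatory assay of SENP6 inhibition, following up an ultra-high-throughput screen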
T3 sequence (Q9GZR1 whole entry): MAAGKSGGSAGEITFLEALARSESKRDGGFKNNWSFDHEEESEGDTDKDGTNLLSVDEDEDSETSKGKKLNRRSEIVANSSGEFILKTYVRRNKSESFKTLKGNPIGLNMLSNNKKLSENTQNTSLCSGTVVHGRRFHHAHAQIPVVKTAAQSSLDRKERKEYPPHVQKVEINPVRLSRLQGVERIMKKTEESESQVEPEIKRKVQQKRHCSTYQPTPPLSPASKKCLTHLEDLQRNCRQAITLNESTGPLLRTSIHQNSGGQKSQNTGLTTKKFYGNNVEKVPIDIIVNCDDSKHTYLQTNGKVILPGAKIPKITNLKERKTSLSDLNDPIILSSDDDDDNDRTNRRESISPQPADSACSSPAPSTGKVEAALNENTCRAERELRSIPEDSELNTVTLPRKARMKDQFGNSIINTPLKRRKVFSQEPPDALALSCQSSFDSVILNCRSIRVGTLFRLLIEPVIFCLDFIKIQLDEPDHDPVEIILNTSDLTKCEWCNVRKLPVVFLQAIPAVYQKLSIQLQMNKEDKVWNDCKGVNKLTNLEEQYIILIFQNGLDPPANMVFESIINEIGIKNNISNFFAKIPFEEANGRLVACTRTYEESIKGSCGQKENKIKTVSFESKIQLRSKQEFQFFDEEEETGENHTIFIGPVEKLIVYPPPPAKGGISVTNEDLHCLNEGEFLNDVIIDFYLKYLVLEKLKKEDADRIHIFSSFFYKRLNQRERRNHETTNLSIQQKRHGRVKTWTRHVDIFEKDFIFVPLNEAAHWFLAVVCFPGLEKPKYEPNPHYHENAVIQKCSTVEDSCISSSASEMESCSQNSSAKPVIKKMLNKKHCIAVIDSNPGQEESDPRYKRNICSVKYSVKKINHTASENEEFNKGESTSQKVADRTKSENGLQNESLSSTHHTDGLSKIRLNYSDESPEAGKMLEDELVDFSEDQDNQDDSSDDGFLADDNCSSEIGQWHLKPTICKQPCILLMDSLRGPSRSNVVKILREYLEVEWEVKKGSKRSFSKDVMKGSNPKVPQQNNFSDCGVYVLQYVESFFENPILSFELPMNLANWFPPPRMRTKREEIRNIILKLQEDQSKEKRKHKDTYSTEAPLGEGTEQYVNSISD

[4] = target: T4, Sentrin-specific protease 8 (Homo sapiens, UniProt Q96LD8);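 note: luminescence read-out of SENP8 inhibition, dose-response confirmation following an ultra-high-throughput screen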
T4 sequence (Q96LD8 whole entry): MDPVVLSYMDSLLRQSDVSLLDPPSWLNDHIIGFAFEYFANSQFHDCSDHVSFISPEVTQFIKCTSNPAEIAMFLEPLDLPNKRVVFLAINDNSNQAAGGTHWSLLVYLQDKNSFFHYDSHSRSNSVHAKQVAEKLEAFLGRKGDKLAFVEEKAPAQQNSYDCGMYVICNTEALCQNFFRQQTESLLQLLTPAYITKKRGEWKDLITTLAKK

[5] = target: Insulin-like growth factor 1 receptor (Homo sapiens, UniProt P08069); experiment: Navigating the Kinome. Panel member name: IGF1R
Insulin-like growth factor 1 receptor, sequence (P08069 31-736 limits assumed): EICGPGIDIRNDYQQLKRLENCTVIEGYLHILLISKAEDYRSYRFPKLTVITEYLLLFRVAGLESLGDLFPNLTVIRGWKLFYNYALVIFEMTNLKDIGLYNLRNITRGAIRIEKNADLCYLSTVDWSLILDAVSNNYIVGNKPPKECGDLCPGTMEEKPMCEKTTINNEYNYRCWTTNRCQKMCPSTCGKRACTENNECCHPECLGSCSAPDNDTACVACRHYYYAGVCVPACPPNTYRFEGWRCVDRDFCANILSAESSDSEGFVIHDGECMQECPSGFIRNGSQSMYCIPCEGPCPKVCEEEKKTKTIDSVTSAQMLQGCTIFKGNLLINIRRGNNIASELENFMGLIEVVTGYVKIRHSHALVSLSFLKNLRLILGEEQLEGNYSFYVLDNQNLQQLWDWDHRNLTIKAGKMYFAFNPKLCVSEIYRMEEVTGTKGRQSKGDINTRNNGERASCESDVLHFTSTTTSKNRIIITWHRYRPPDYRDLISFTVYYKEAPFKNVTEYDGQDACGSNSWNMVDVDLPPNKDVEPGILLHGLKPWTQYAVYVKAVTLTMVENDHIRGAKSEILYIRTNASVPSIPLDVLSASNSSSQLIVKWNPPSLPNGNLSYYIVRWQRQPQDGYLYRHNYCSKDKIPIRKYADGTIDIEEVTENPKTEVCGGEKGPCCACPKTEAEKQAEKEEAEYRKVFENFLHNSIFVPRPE
Insulin-like growth factor 1 receptor, sequence (P08069 741-1367 limits assumed): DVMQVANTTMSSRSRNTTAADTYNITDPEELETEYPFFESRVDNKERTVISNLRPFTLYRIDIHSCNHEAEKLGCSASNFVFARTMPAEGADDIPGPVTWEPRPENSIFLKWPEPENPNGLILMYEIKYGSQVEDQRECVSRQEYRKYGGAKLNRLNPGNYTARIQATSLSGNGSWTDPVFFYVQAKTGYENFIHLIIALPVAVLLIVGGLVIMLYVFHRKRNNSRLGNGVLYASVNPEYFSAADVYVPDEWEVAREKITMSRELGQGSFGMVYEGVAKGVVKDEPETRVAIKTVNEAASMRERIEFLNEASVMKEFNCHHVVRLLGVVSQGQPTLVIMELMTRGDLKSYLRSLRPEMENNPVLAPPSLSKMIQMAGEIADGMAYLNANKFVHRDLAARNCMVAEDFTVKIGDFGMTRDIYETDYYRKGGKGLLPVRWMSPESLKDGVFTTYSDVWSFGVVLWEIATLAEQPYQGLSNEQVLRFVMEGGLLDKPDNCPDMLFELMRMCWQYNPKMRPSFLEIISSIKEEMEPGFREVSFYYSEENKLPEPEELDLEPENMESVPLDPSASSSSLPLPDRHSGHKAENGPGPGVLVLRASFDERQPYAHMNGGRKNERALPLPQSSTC

[6] = target: Cyclin-dependent kinase 9 (Homo sapiens, UniProt P50750);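 note: value from the CDK9 entry of a kinome-spanning kinase panel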
Cyclin-dependent kinase 9, sequence (P50750 whole entry): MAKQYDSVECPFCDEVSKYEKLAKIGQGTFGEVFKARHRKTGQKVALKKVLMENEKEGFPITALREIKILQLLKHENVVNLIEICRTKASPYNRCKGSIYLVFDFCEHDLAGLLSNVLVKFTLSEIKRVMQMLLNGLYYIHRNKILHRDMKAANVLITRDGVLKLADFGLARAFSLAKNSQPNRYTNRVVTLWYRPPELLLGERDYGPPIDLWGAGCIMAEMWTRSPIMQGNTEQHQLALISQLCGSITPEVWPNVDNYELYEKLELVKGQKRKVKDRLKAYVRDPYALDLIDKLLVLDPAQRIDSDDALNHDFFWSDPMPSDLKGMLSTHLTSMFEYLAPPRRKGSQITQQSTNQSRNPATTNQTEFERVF

SMILES | IC50 [1] | IC50 [2] | IC50 [3] | IC50 [4] | Ki [5] | Ki [6]
Cc1ccc(NC(=O)COc2cccc(/C=C3\SC(=S)N(CCC(=O)O)C3=O)c2)cc1Cl | 70 µM (active) | 18.3 µM (active) | > 100 µM (inactive) | 3.14 µM (active) | – | –
COc1cccc(C(C)NC(=O)c2ccc(-c3ccncc3)s2)c1 (stereo not given) | – | – | – | – | > 2.51 µM (inactive) | > 1.58 µM (inactive)
O=Nc1c(-c2c(O)[nH]c3cc(Br)ccc23)[nH]c2ccccc12 | 64.3 µM (active) | 5.6 µM (active) | > 100 µM (inactive) | > 100 µM (inactive) | – | –

Source: ChEMBL document CHEMBL1201862, “PubChem BioAssay data set” (2004)
